Inconclusive results are not listed. Active and inactive are the calls of the source. No rule for the calls is given here.
test system: rat and mouse 2-year carcinogenicity bioassay, tumor evidence; experiment: Consolidated carcinogenicity assay summary data; settings: Route (rodents): Dosed feed
Source text: Cancer Evaluation Criteria
The National Toxicology Program describes the results of individual experiments on a chemical agent and notes the strength of the evidence for conclusions regarding each study. […] Other organizations, such as the International Agency for Research on Cancer, assign a strength of evidence for conclusions based on an examination of all available evidence, including animal studies such as those conducted by the NTP, epidemiologic studies, and estimates of exposure. Thus, the actual determination of risk to humans from chemicals found to be carcinogenic in laboratory animals requires a wider analysis that extends beyond the purview of these studies.
Five categories of evidence of carcinogenic activity are used in the Technical Report series to summarize the strength of evidence observed in each experiment: two categories for positive results (clear evidence and some evidence); one category for uncertain findings (equivocal evidence); one category for no observable effects (no evidence); and one category for experiments that cannot be evaluated because of major flaws (inadequate study). These categories of interpretative conclusions were first adopted in June 1983 and then revised on March 1986 for use in the Technical Report series to incorporate more specifically the concept of actual weight of evidence of carcinogenic activity. For each separate experiment (male rats, female rats, male mice, female mice), one of the following five categories is selected to describe the findings. These categories refer to the strength of the experimental evidence and not to potency or mechanism.
For studies showing multiple chemical-related neoplastic effects that if considered individually would be assigned to different levels of evidence categories, the following convention has been adopted to convey completely the study results. In a study with clear evidence of carcinogenic activity at some tissue sites, other responses that alone might be deemed some evidence are indicated as "were also related" to chemical exposure. In studies with clear or some evidence of carcinogenic activity, other responses that alone might be termed equivocal evidence are indicated as "may have been" related to chemical exposure.
When a conclusion statement for a particular experiment is selected, consideration must be given to key factors that would extend the actual boundary of an individual category of evidence. Such consideration should allow for incorporation of scientific experience and current understanding of long-term carcinogenesis studies in laboratory animals, especially for those evaluations that may be on the borderline between two adjacent levels. These considerations should include:
- adequacy of the experimental design and conduct;
- occurrence of common versus uncommon neoplasia;
- progression (or lack thereof) from benign to malignant neoplasia as well as from preneoplastic to neoplastic lesions;
- some benign neoplasms have the capacity to regress but others (of the same morphologic type) progress. At present, it is impossible to identify the difference. Therefore, where progression is known to be a possibility, the most prudent course is to assume that benign neoplasms of those types have the potential to become malignant;
- combining benign and malignant tumor incidences known or thought to represent stages of progression in the same organ or tissue;
- latency in tumor induction;
- multiplicity in site -specific neoplasia;
- supporting information from proliferative lesions (hyperplasia) in the same site of neoplasia or in other experiments (same lesion in another sex or species);
- presence or absence of dose relationships;
- statistical significance of the observed tumor increase;
- concurrent control tumor incidence as well as the historical control rate and variability for a specific neoplasm;
- survival-adjusted analyses and false positive or false negative concerns;
- structure-activity correlations; and
[…]

Structure (SMILES) | carcinogen call
Oc1c(Cl)c(Cl)c(Cl)c(Cl)c1Cl | active; some evidence
Nc1ccc(N)c2c1C(=O)c1c(N)ccc(N)c1C2=O | active; clear evidence
COc1ccc([N+](=O)[O-])cc1N | active; clear evidence
COC(=O)C(c1ccccc1)C1CCCCN1 (stereo not drawn) | active; no evidence
CC(CCl)OP(=O)(OC(C)CCl)OC(C)CCl (stereo not drawn) | active; some evidence
CCNC(=S)NCC | active; clear evidence
Nc1ccc(S(=O)(=O)c2ccc(N)cc2)cc1 | active; clear evidence
Brc1c(Br)c(Br)c(Oc2c(Br)c(Br)c(Br)c(Br)c2Br)c(Br)c1Br | active; some evidence
NC(=O)NN=Cc1ccc([N+](=O)[O-])o1 | active; equivocal evidence
Cc1ccc2c(c1[N+](=O)[O-])C(=O)c1ccccc1C2=O | active; clear evidence
COc1cc(-c2ccc(N=C=O)c(OC)c2)ccc1N=C=O | active; clear evidence
NS(=O)(=O)c1cc(C(=O)O)c(NCc2ccco2)cc1Cl | active; equivocal evidence
CCn1cc(C(=O)O)c(=O)c2ccc(C)nc21 | active; clear evidence
C/C=C(/C)C(=O)O[C@H]1CCN2CC=C(COC(=O)[C@@](O)([C@@H](C)OC)C(C)(C)O)[C@H]12 | active; clear evidence
O=Nc1ccc(NO)cc1 | active; no evidence
O=C1c2ccccc2C(=O)c2ccccc21 | active; some evidence
O=C(c1ccccc1)c1ccccc1 | active; some evidence
CCCCC(CC)COC(=O)c1ccccc1C(=O)OCC(CC)CCCC (stereo not drawn) | active; clear evidence
O=C1OC(c2ccc(O)cc2)(c2ccc(O)cc2)c2ccccc21 | active; clear evidence
C=C(Cl)CSC(=S)N(CC)CC | active; clear evidence
Cc1ccccc1[N+](=O)[O-] | active; clear evidence
S=C1NCCN1 | active; clear evidence
O=c1c(-c2ccc(O)cc2)coc2cc(O)cc(O)c12 | active; no evidence

Structure (SMILES) | carcinogen call
O=C1NC(=O)C(c2ccccc2)(c2ccccc2)N1 | active; equivocal evidence
COc1ccccc1[N+](=O)[O-] | active; clear evidence
O=C1CN(N=Cc2ccc([N+](=O)[O-])o2)C(=O)N1 | active; some evidence
OCC(CO)(CBr)CBr | active; clear evidence
O=C([O-])c1cc(N=Nc2ccc(-c3ccc(N=Nc4c(O)ccc(N=Nc5cc(S(=O)(=O)[O-])ccc5[O-])c4[O-])cc3)cc2)ccc1O.[Cu+2].[Na+].[Na+] | active; no evidence
Cc1ccc2c(c1N)C(=O)c1ccccc1C2=O | active; clear evidence
Nc1c(Br)cc(Br)c2c1C(=O)c1ccccc1C2=O | active; clear evidence
Nc1cccc2c(N)cccc12 | active; no evidence
Nc1ccccc1 | active; clear evidence
CCOC(=O)C(O)(c1ccc(Cl)cc1)c1ccc(Cl)cc1 | active; equivocal evidence
CCOc1ccc(NC(C)=O)cc1N | active; no evidence
CCn1c2ccccc2c2cc(N)ccc21 | active; clear evidence
Cc1ccc(Cl)cc1N | active; no evidence
O=C(O)C(F)(F)C(F)(F)C(F)(F)C(F)(F)C(F)(F)C(F)(F)C(F)(F)F | active; clear evidence
Cc1ccc([N+](=O)[O-])cc1N | active; no evidence
Nc1ccccc1-c1ccccc1 | active; no evidence
Cc1cnc[nH]1 | active; no evidence
CCCCC(CC)COC(=O)CCCCC(=O)OCC(CC)CCCC (stereo not drawn) | active; no evidence
Nc1cc(Cl)c(N)c(Cl)c1 | active; no evidence
O=c1c(O)c(-c2ccc(O)c(O)c2)oc2cc(O)cc(O)c12 | active; some evidence
O=Nc1ccc(Nc2ccccc2)cc1 | active; clear evidence
O=C(O)CN(CC(=O)O)CC(=O)O | active; clear evidence

same assay, conditions: Route (rodents): Dosed water

Structure (SMILES) | carcinogen call
Cc1cc(-c2ccc(N)c(C)c2)ccc1N | active; clear evidence
NC(=O)C1CO1 (stereo not drawn) | active; clear evidence
N#CC(Br)Br | active; clear evidence
COc1cc(-c2ccc(N=Nc3c(S(=O)(=O)O)cc4cc(S(=O)(=O)O)cc(N)c4c3O)c(OC)c2)ccc1N=Nc1c(S(=O)(=O)O)cc2cc(S(=O)(=O)O)cc(N)c2c1O | active; clear evidence
C1COCCO1 | active; clear evidence
Nc1ccc(Cc2ccc(N)cc2)cc1 | active; clear evidence

same assay, conditions: Route (rodents): Gavage

Structure (SMILES) | carcinogen call
ClC(Br)Br | active; no evidence
C=CCc1ccc(OC)c(OC)c1 | active; clear evidence
ClCCCl | active; clear evidence
C=C1C/C(=C/C)C(=O)O[C@@H]2CCN3CC=C(COC(=O)[C@@]1(O)CO)[C@H]23 | active; clear evidence
O=C1CCc2ccccc2O1 | active; some evidence
BrC(Br)Br | active; some evidence
CCCCC1C(=O)N(c2ccccc2)N(c2ccccc2)C1=O | active; equivocal evidence
COc1c2occc2cc2ccc(=O)oc12 | active; clear evidence
C=CC(=C)CCC=C(C)C | active; clear evidence
O=Cc1ccc(CO)o1 | active; no evidence
C=CC#N | active
CC=Cc1ccc(O)c(OC)c1 | active; equivocal evidence
C=CC(=O)OCC | active; clear evidence
ClC(Cl)C(Cl)(Cl)Cl | active; equivocal evidence
ClC=CCCl | active; clear evidence
Clc1cc2oc3c(Cl)c(Cl)c(Cl)cc3c2cc1Cl | active
ClCc1cccnc1 | active; clear evidence
CC(CCl)OC(C)CCl (stereo not drawn) | active; no evidence
OCC1CO1 (stereo not drawn) | active; clear evidence

same assay, conditions: Route (rodents): Inhalation

Structure (SMILES) | carcinogen call
C[N+](=O)[O-] | active; no evidence
CC(=O)CC(C)C | active; some evidence
FC(F)=C(F)F | active; clear evidence
C=CC(=C)Cl | active; clear evidence
CCc1ccccc1 | active; clear evidence
C=C(C)c1ccccc1 | active; some evidence
CC(=O)C(C)=O | active; some evidence
CCCCOCCO | active; no evidence
O=[O+][O-] | active; no evidence
C#CCO | active; some evidence
CC(C)c1ccccc1 | active; clear evidence
c1ccc2ccccc2c1 | active; clear evidence

same assay, conditions: Route (rodents): Inhalation; Second Route: Gavage

Structure (SMILES) | carcinogen call
C=C(Cl)Cl | active; clear evidence

same assay, conditions: Route (rodents): Interperitoneal

Structure (SMILES) | carcinogen call
S=P(N1CC1)(N1CC1)N1CC1 | active; clear evidence
CC(CN1CC(=O)NC(=O)C1)N1CC(=O)NC(=O)C1 (stereo not drawn) | active; no evidence

same assay, conditions: Route (rodents): Topical

Structure (SMILES) | carcinogen call
Oc1cc(Cl)ccc1Oc1ccc(Cl)cc1Cl | active
CCCCCCCCCCCC(=O)N(CCO)CCO | active; no evidence
OCCNCCO | active; no evidence

Source: PubChem BioAssay AID2202555 (NIEHS Division of Translational Toxicology (DTT))
